Measurements from patent US20260166313A1, “WIRELESS PATCH SYSTEM FOR TRANSDERMAL, TRANSMUCOSAL AND DENTAL ELECTRICAL DRUG DELIVERY” (priority 2015, published 2026).

Assay: ACEK effect (DEP, ACEO, ACET) on drug particles over the inductively powered IDE, observed by light microscopy
Format: physicochemical
Conditions: for ACET effect detection / negative DEP (nDEP) detection: any frequency range; for negative DEP (nDEP) detection: DI water
From the text: In order to study the functionality of the patch in terms of a demodulation circuit and ACEK effect, a very simple set-up was constructed which is shown in FIG. 2C. The experimental set-up includes the dental patch, an optical microscope, AC waveform generators, a digital oscilloscope and some probe connectors. A microchamber was sealed over the IDE to hold the solution (FIG. 2C). […] The movement of particles was observed by an optical microscope NIKON ECLIPSE LV100 (Nikon Instruments, Inc., Melville, New York, United States of America) and the images from the microscope were acquired by a Roper Scientific (Tucson, Arizona, United States of America) digital camera and subsequently transferred to a computer. An AM signal with the amplitude of 10 V was applied to the primary coil. The AM signal applied to the primary coil was generated by two Agilent Arbitrary Waveform Generators (model 33220A). The carrier signal frequency was 8 MHz. The separation between primary and secondary coil is 10 mm. An Agilent Mixed Signal Oscilloscope (model MSO6012A) was used to record the demodulated signal. […] The frequency of the modulating signal was continuously swept in order to find an appropriate frequency at which ACEK effect occurs. […] The ACEK effect on Tetracycline, Acetaminophen, Benzocaine and Lidocaine was studied.

| negative DEP (nDEP) detection | frequency of maximum ACEO vortices (field 15 Vpp/mm) | Compound | ACET effect detection | frequency of maximum ACEO vortices (field 10 Vpp/mm) |
| --- | --- | --- | --- | --- |
| No nDEP or ACET effects were detected | 1 KHz | CCOC(=O)c1ccc(N)cc1 [benzocaine] | No nDEP or ACET effects were detected |  |
| No negative DEP (nDEP) was detected |  | CC(=O)Nc1ccc(O)cc1 [acetaminophen] |  |  |

| Compound | negative DEP (nDEP) detection | frequency of maximum ACEO vortices (field 15 Vpp/mm) | ACET effect detection | frequency of maximum ACEO vortices (field 10 Vpp/mm) |
| --- | --- | --- | --- | --- |
| CCN(CC)CC(=O)Nc1c(C)cccc1C [lidocaine] | No nDEP or ACET effects were detected |  | No nDEP or ACET effects were detected | 500 Hz |
